Laboratory results taken from ChEMBL document CHEMBL3352084, “Bioactive compounds from the insect Aspongopus chinensis” (Bioorg Med Chem Lett, 2014).
The source made the active and inactive calls. The calls are words filed in the database; no cut-off is given here.

Assays:
[1] = test system: Rattus norvegicus; assay: Inhibition of high glucose-induced IL6 production in rat renal mesangial cells dosed for 1 hr before 30 mM D-glucose stimulation for 24 hrs by ELISA; type: functional
[2] = test system: Rattus norvegicus; assay: Inhibition of high glucose-induced fibronectin production in rat renal mesangial cells dosed for 1 hr before 30 mM D-glucose stimulation for 24 hrs by ELISA; type: functional
[3] = test system: Rattus norvegicus; assay: Inhibition of high glucose-induced collagen 4 production in rat renal mesangial cells dosed for 1 hr before 30 mM D-glucose stimulation for 24 hrs by ELISA; type: functional
[4] = molecular target: Prostaglandin G/H synthase 2 (Homo sapiens, UniProt P35354); assay: Inhibition of human recombinant COX2 pre-incubated for 15 mins before arachidonic acid addition by fluorescence micro plate reader method
Sequence of Prostaglandin G/H synthase 2 (P35354 whole entry, looked up): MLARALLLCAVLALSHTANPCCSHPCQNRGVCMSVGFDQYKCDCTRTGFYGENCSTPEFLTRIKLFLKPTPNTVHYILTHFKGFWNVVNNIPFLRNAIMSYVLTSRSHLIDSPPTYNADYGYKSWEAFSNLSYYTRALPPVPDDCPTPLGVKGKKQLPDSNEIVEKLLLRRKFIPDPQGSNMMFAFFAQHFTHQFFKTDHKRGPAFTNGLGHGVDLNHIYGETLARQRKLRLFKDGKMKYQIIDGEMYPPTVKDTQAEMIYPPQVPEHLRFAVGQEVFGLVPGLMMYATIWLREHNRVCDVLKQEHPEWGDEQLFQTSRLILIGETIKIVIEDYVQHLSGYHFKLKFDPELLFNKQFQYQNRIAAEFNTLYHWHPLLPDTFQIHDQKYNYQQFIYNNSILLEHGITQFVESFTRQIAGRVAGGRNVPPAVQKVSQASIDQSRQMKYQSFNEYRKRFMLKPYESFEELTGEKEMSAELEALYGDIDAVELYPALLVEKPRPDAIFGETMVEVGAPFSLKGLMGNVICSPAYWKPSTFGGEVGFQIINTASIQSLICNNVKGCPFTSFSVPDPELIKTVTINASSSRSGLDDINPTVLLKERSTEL

[5] = Retention time of the compound by […] method; type: physicochemical

| SMILES | inhibition [1] | inhibition [2] | inhibition [3] | IC50 [4] [µM] | Retention_time [5] [min] |
| --- | --- | --- | --- | --- | --- |
| CC(C)C[C@@H]1NC(=O)[C@H](Cc2c[nH]c3ccccc23)NC1=O | Active | Active | Active | – | – |
| CC(=O)NC[C@@H](OC[C@H](O)CO)c1ccc(O)c(O)c1 | – | – | – | 117 | – |
| CC(=O)N/C=C\c1ccc2c(c1)OC(NC(C)=O)C(c1ccc(O)c(O)c1)O2 (configuration not stated) | Active | Active | Active | – | – |
| C/C(=C/CCC(C)c1cc(O[C@@H]2O[C@H](CO)[C@@H](O)[C@H](O)[C@H]2O)c(O)cc1C)C(=O)O (some centres not stated) | – | – | – | – | 25.461 |
| CC(=O)NCCc1ccc(O)c(O)c1 | – | – | – | 18.9 | – |
| CC(=O)N/C=C\c1ccc2c(c1)OC(c1ccc(O)c(O)c1)C(NC(C)=O)O2 (configuration not stated) | Active | Active | Active | 6.5 | – |
| CC(=O)/C=C/c1ccc(O)c(O)c1 | – | – | – | 22.2 | – |
| CCc1nc(C)ccc1O | Active | Active | Active | – | – |
